Patent US9120838B2, “Saccharide conjugates” (Curators of the University of Missouri, priority 2011, dated 2015)
Like-named read-outs stand apart in the source and are kept apart here.

Assays:
THP-1 macrophages = experiment: Cell viability (toxicity) by XTT reduction assay in THP-1 macrophages; format: cell-based, human; settings: for toxicity (in words): THP-1 macrophages; for concentration at which toxic to the cells / cell viability compromised: XTT reduction assay
Protocol: Cell viability was monitored using an XTT [2,3-bis(2-methoxy-4-nitro-5-sulfophenyl)-2H-tetrazolium-5-carboxanilide] assay. Macrophage metabolic activity was assessed by probing mitochondrial reduction of XTT (Sigma) which is a measure of viability (or toxicity) in response to the synthetic antagonists. Following 6 h treatment with antagonist compounds and LPS, the macrophages were washed with PBS (Hyclone) and incubated with XTT (0.33 mg/mL) and phenazine methosulfate (PMS) (8.3 μM) (Acros, Morris Plains, N.J.) to a final concentration of 0.33 mg/mL and 8.3 μM respectively for 2 h at 37° C. in 5% CO2. The cellular toxicity was then assessed in a platereader using absorbance of reduced XTT at 467 nm.

LPS = settings: Boons et al.; Shiozaki et al.; Peri et al.; cited from earlier work
[1] = system: LPS-induced TNFα production; experiment: LPS antagonism assay: inhibition of LPS-induced TNFα production in THP-1 macrophages (ELISA); format: cell-based, human; settings: for LPS antagonistic activity: increasing concentrations, 10 ng/mL LPS 6 h; for inhibitory activity against LPS-induced TNFα production: concentration range of 0.1 nM to 10 μM
Protocol: Synthetic compounds in solid form were dissolved in tetrahydrofuran (THF), aliquotted in small volumes, vacuum-centrifuged for 1 h and stored at −80° C. as dry compounds. For cellular treatment, an aliquot was dissolved in an appropriate volume of dimethylsulfoxide (DMSO) to give a concentrated working stock solution. This stock solution was further diluted in DMSO to give the desired concentration range. The final concentration of DMSO in the cell treatments was always maintained at 0.6%. Concentrations of Fmoc-containing compounds were verified by absorbance using an extinction coefficient of 7800 M^−1 cm^−1 at 301 nm.
THP-1 cells were obtained from ATCC (Manassas, Va.) and maintained in RPMI-1640 culture medium (HyClone, Logan, Utah) containing 2 mM L-glutamine, 25 mM HEPES, 1.5 g/L sodium bicarbonate, 10% fetal bovine serum (FBS) (HyClone), 50 units/mL penicillin, 50 μg/mL streptomycin (HyClone), and 50 μM β-mercaptoethanol at 37° C. in 5% CO2. For cellular assay, THP-1 monocytes were centrifuged and resuspended in a fresh growth medium to a cell density of 5×10^5 cells/mL Cells were then seeded in a 48-well plate and differentiated into adherent macrophages by treatment with 10 ng/mL phorbol 12-myristate 13-acetate (PMA) (Sigma) for 24 h at 37° C. in 5% CO2. The non-adherent cells were removed and the adherent cells were washed and replenished with reduced FBS growth medium. For the two wells set aside for calculating percent differentiation, the cells were washed with PBS (Hyclone) prior to removal by 0.25% trypsin-EDTA. Cells in a separate well were removed with 0.25% trypsin and counted under the microscope using a hemocytometer to determine the number of adherent macrophages. For the remaining wells, the cells were pre-incubated with LPS antagonist compounds at different concentrations for 30 min followed by addition of 10 ng/mL ultrapure LPS from E. coli K12 (InvivoGen, San Diego, Calif.) for 6 h at 37° C. in 5% CO2. 0.6% DMSO was used as a control. The cell medium was collected and stored at −20° C. until analyzed by ELISA for secreted TNFα production.

TNFα production = experiment: Agonist activity: secreted TNFα in THP-1 macrophages in the absence of LPS; format: cell-based, human; settings: for concentration range with agonist activity: FIG. 4 and FIG. 6; for agonist activity in the absence of LPS: tested in the absence of LPS
[2] = concentration at which toxicity is seen, human macrophage cells, XTT reduction
[3] = human macrophage cells (THP-1), 10 ng/mL LPS for 6 h, read-out: TNFα inhibition (IC50)
[4] = concentration range showing agonist activity, human macrophage cells
[5] = human macrophage cells (THP-1), 10 ng/mL LPS for 6 h

Row | SMILES | toxicity (in words) (THP-1 macrophages; XTT reduction) | Toxicity (THP-1 macrophages; [2]) | IC50 [1, 3] [nM] | Agonist activity (TNFα production; [4]) | LPS antagonistic activity ([1]; THP-1 macrophages) | inhibitory activity against LPS-induced TNFα production [1] | TNFα inhibition (IC50) [1, 5] | agonist activity in the absence of LPS (TNFα production) | also measured
1 | CCCCCCCCCCCCCCO[C@H]1[C@@H](OC)O[C@H](C[N+](C)(C)C2CCCC2)[C@@H](O)[C@@H]1OCCCCCCCCCCCCCC [Compound 4, reference compound] | toxic at high concentrations | >30 µM | 6000 | 30 to 100 µM | – | – | – | – | antagonistic activity against LPS as reported in the literature (LPS): provide antagonistic activity; inhibition range ([1]; LPS-induced TNFα production): 3 to 10 µM; concentration range with agonist activity (TNFα production): > 10 µM
2 | CO[C@H]1OC(COC(=O)CCC(=O)OC[C@H](NC(=O)OCC2c3ccccc3-c3ccccc32)C(=O)OC(C)(C)C)[C@@H](O)[C@H](OCc2ccccc2)C1OCc1ccccc1 (stereo partly drawn) [Compound 10, Methyl 2,3-di-O-benzyl-6-O-(4-((S)-2-(9-fluorenylmethoxyearbonyl)amino-3-(tert-butoxy)-3-oxopropyl)oxy-4-oxobutanoyl)-α-D-glycopyranoside] | – | None observed | – | None observed | do not display LPS antagonistic activity | no inhibitory activity | None observed | no agonist activity | –
3 | CO[C@H]1OC(COC(=O)CCC(=O)OC[C@H](NC(=O)OCC2c3ccccc3-c3ccccc32)C(=O)O)[C@@H](O)[C@H](OCc2ccccc2)C1OCc1ccccc1 (stereo partly drawn) [Compound 11, Methyl 2,3-di-O-benzyl-6-O-(4-((S)-2-(9-fluorenylmethoxyearbonyl)amino-2-carboxyethyl)oxy-4-oxobutanoyl)-α-D-glycopyranoside] | cell toxicity | >10 µM | 46000 | None observed | displays LPS antagonistic activity | – | – | – | concentration at which toxic to the cells / cell viability compromised (THP-1 macrophages): 30 to 100 µM; concentrations at which LPS-induced TNFα production is significantly inhibited ([1]; THP-1 macrophages): greater than 10 μM
4 | CO[C@H]1O[C@H](COC(=O)CCC(=O)OC[C@H](N)C(=O)OC(C)(C)C)[C@@H](O)[C@H](OCc2ccccc2)[C@H]1OCc1ccccc1 [Compound 12, Methyl 2,3-di-O-benzyl-6-O-(4-((S)-2-amino-3-(tert-butoxy)-3-oxopropyl)oxy-4-oxobutanoyl)-α-D-glycopyranoside] | – | None observed | – | None observed | do not display LPS antagonistic activity | no inhibitory activity | None observed | no agonist activity | –
5 | CO[C@H]1O[C@H](COC(=O)CCC(=O)OC[C@H](N)C(=O)O)[C@@H](O)[C@H](OCc2ccccc2)[C@H]1OCc1ccccc1 [Compound 13, Methyl 2,3-di-O-benzyl-6-O-(4-((S)-2-amino-2-carboxyethyl)oxy-4-oxobutanoyl)-α-D-glycopyranoside] | – | None observed | – | None observed | do not display LPS antagonistic activity | no inhibitory activity | None observed | no agonist activity | –
6 | CCCCCCCCCCCCCC(=O)O[C@H]1[C@@H](OC)O[C@H](COC(=O)CCC(=O)OC[C@H](NC(=O)OCC2c3ccccc3-c3ccccc32)C(=O)O)[C@@H](O)[C@@H]1OC(=O)CCCCCCCCCCCCC [Compound 19, Methyl 6-O-(4-((S)-2-(9-fluorenylmethoxyearbonyl)amino-2-carboxyethyl)oxy-4-oxobutanoyl)-2,3-di-O-tetradecanoyl-α-D-glucopyranoside] | – | >10 µM | 3000 | 10 to 30 µM | highly potent LPS antagonistic activity | – | – | – | concentration at which toxic to the cells / cell viability compromised (THP-1 macrophages): ≥ 10 µM; Toxicity (THP-1 macrophages; at 5 μM compound): no observable toxicity; LPS response blocked ([1]; 5 μM compound): 80%; concentration at which inhibition of LPS-induced TNFα begins ([1]; THP-1 macrophages): ≥ 550 nM; concentration range with agonist activity (TNFα production): 10 to 30 µM
7 | CCCCCCCCCCCCCCO[C@H]1[C@@H](OC)O[C@H](COC(=O)CCC(=O)OC[C@H](NC(=O)OCC2c3ccccc3-c3ccccc32)C(=O)O)[C@@H](O)[C@@H]1OCCCCCCCCCCCCCC [Compound 24, Methyl 6-O-(4-((S)-2-(9-fluorenylmethoxycarbonyl)amino-2-carboxyethyl)oxy-4-oxobutanoyl)-2,3-di-O-tetradecanyl-α-D-glucopyranoside] | without toxicity | None observed | 500 | None observed | significant LPS antagonistic activity | – | – | – | Toxicity (THP-1 macrophages; tested 0.2 to 40 μM range): no toxicity; inhibition at 1 µM ([1]; Homo sapiens, THP-1, 1 μM compound): 70%; inhibition at 40 µM ([1]; Homo sapiens, THP-1, 40 μM compound, read-out: overall inhibition of LPS-induced TNFα production): 90%; IC50 ([1]; Macrophage, LPS-induced TNFα production in human macrophages, FIG. 5, read-out: IC50, curve fitting of the inhibition data): 470 nM; Agonist activity (TNFα production; tested 0.2 to 40 μM range): no toxicity or agonist activity
